Where two headings read alike, the source gives them in different places.
How the values were obtained:
[1] = system: scopolamine-induced amnesia rats; assay: Passive avoidance test, scopolamine-induced amnesia (acute model); assay type: in vivo, Wistar rats; details: Mean ± SEM; for Latency time: time to enter darker compartment
Procedure: In the acute model, the rats were trained for Morris water maze (MWM) and passive avoidance test (PAT) tasks in the first 4 days. On the 5th day, 30 min after scopolamine administration, respective treatments were given to all the groups. Fifteen minutes thereafter, the test trials were conducted in MWM and PAT.
(§1) The passive avoidance apparatus consists of a larger illuminated compartment and a smaller dark compartment. Each consists of a square box, with a floor grid of 50 × 50 cm and wooden walls of 35-cm height in larger compartment. Larger box was illuminated by 15 W Philips CFL lamp. A smaller dark compartment of 15 × 15 cm with an electrified floor is connected to a constant current stimulator. An opening 6 × 6 cm in between the two compartments was closed using a transparent plexiglass sliding door. The test procedure was carried out in three phases, exploration, learning, and retention (Praveenkumar [2019]).
(§2) First day, the animal was placed in the center of the illuminated larger compartment facing away from the entrance to the small darker compartment and allowed to explore the apparatus, i.e., both compartments for 3 min. Total time spent in the larger and smaller compartments and the number of crossings (from larger to smaller compartments and vice versa; a measure of exploratory behavior) were noted. On the second day, animal was placed in the illuminated larger compartment facing away from the entrance to the darker compartment. Once the animal entered the darker compartment, the entrance to the larger compartment was closed, and three strong electric foot shocks (50 Hz, 0.5 mA, 2 s) with 10-s intervals were applied. On the third day, rats were placed in the illuminated larger compartment and allowed to explore both the compartments for 3 min. The parameters assessed are latency time to enter into darker compartment, time spent in the darker and brighter compartments, and the number of crossings between the compartments.

AChE = assay type: in vivo, rat; details: scopolamine model; for % AChE Inhibition: plasma
Procedure: Samples were then centrifuged at 10,000 rpm for 5 min, and plasma was stored at − 70 °C until analysis.
Thiocholine, which was produced due to the hydrolysis of acetylthiocholine (ACTI) by AChE, was estimated by making it react with 5, 5′-dithiobis-(2-nitrobenzoic acid) (DTNB). The chemical, 5-thio-2-nitrobenzoic acid (yellow color complex), which was released due to reaction was estimated using a UV spectrophotometer in the range of 400 to 420 nm with maximal absorption at 412 nm. One hundred microliter of blank rat plasma was taken in the polypropylene vials. To this, 2.8 mL of phosphate buffer (0.01 M, pH 8) and 100 µL of DTNB reagents were added and mixed well. Then, 20 µL of ACTI (26.01 mg/mL of Milli-Q water) was added to the contents of the cuvette to initiate the enzyme reaction. The reaction kinetics was monitored at different time intervals (0, 1, 2, 3, 4 min), and absorbance was noted. 2.8 mL buffer (0.01 M, pH 8.0) and 100 µL DTNB reagent served as blank. Concentrations in the range of 0.03–30 mM were prepared using methanol as a diluent. […] Substrate concentration and reaction time were optimized such that sufficient concentration of ACTI is available to bind with the enzyme to initiate the reaction and also it should not saturate the enzyme. In this study, varying concentrations (100–1000 µM) of ACTI were prepared, and reaction kinetics were observed. In general, the maximum time should be either 2–4 min or even less, because the enzyme might undergo degradation. In the present study, up to 4 min of reaction kinetics (changing the optical density or absorbance) was measured. One unit of AChE activity is defined as the number of µmol of acetylthiocholine iodide hydrolyzed per minute. The specific activity of AChE is expressed in moles/min/mg of protein (Kaur et al. [2015]): AChEActivity=(abs.permin×1000×volumeofenzyme)/(13600×TRM)AChEActivity=abovevalue×1000(nanomolar/min/mL)
where 13,600 = molar extinction coefficient of DTNB: 1000-molar conversion factor: (TRM) total reaction mixture 3 mL: volume of enzyme (0.1 mL).

[2] = system: ICV colchicine-induced dementia rats; assay: Passive avoidance test, ICV colchicine-induced dementia (chronic model); assay type: in vivo, Wistar rats; details: for Retention test, Latency time, 1st / Retention test, No. of crossings, 1st / Retention test, Time spent in darker chamber, 1st: 1st retention test, before colchicine administration; for Retention test, Latency time, 2nd / Retention test, No. of crossings, 2nd / Retention test, Time spent in darker chamber, 2nd: 2nd retention test, day 17; for Retention test, No. of crossings, 3rd / Retention test, Latency time, 3rd / Retention test, Time spent in darker chamber, 3rd: 3rd retention test, day 23; for Acquisition test, 2nd day: colchicine model
Procedure: In the chronic model, the rats were trained for MWM and PAT tasks for the first 4 days followed by intracerebroventricular (i.c.v.) administration of colchicine on day 6. After establishing dementia on day 10 of the colchicine administration, the drug treatment was initiated from day 11 to 24. The effects of different drug treatments on dementia were assessed on days 14 and 21. On these particular days, the swim test was performed 15 min after the administration of different treatments and escape latencies; residence time and peripheral swim time were recorded (Nampoothiri [2017]). The retention trials for PAT on day 17 and 23 were performed on days 17 and 23, 15 min after the administration of the drug.
On the 6th day, surgery was performed as described (Bokare et al. [2018]). Rat was anesthetized with sodium pentobarbital (45 mg/kg, i.p.) and positioned in stereotaxic apparatus. The head was positioned in a frame, and a midline sagittal incision was made in the scalp. Two holes were drilled through the skull at coordinates (0.8 mm posterior to bregma, 1.8 mm lateral to the sagittal suture, and 3.6 mm beneath the cortical surface) to place the injection cannula. Rats were intracerebroventricularly infused with either artificial cerebrospinal fluid (ACSF; in mM: 147 NaCl, 2.9 KCl, 1.6 MgCl2, 1.7 CaCl2, and 2.2 dextrose) or 15 µg of colchicine in 5 µL ACSF using a Hamilton microsyringe positioned in the injection cannula. To promote back diffusion, the microsyringe was left in place for 2 min following injection. The scalp was then closed with a suture. After surgery, all animals received gentamicin (5 mg/kg, i.p.) to prevent sepsis. Special care was taken during the postoperative period to provide food and water inside the cage of the rat. In sham-operated rats, surgery was identical except for injection of the solution.
as §1, §2

For `CCN(C)C(=O)Oc1cccc([C@H](C)N(C)C)c1` [ORSM, rivastigmine], the Acquisition time ([1]; listed as SCP + ORSM) was 14.66 ± 2.61 s, the No. of crossings ([1]; listed as SCP + ORSM) was 2.50 ± 0.85 and the “Time spent in bright comp.” value ([1]; listed as SCP + ORSM) was 103.50 ± 16.38 s. The “Time spent in darker comp.” value ([1]; listed as SCP + ORSM) was 76.50 ± 16.38 s, the Latency time ([1]; listed as SCP + ORSM) was 41.63 ± 15.66 a s and the “peak AChE inhibition (Emax, maximum inhibition) in plasma” value (AChE) was 71.11%. The “time of peak AChE inhibition in plasma” value (AChE) was 60 min, the “% AChE Inhibition” value (AChE; 0 min, listed as SCP + ORSM) was 0.00 ± 0.0543% and the “% AChE Inhibition” value (AChE; 5 min, listed as SCP + ORSM) was 26.67 ± 0.1358%. The “% AChE Inhibition” value (AChE; 10 min, listed as SCP + ORSM) was 49.99 ± 0.1026%, the “% AChE Inhibition” value (AChE; 15 min, listed as SCP + ORSM) was 62.03 ± 0.0877 a,b % and the “% AChE Inhibition” value (AChE; 20 min, listed as SCP + ORSM) was 66.09 ± 0.0921%. The “% AChE Inhibition” value (AChE; 30 min, listed as SCP + ORSM) was 64.89 ± 0.0895%, the “% AChE Inhibition” value (AChE; 45 min, listed as SCP + ORSM) was 70.42 ± 0.0577% and the “% AChE Inhibition” value (AChE; 60 min, listed as SCP + ORSM) was 71.11 ± 0.0438%. The “% AChE Inhibition” value (AChE; 90 min, listed as SCP + ORSM) was 68.18 ± 0.0298%, the “% AChE Inhibition” value (AChE; 120 min, listed as SCP + ORSM) was 64.36 ± 0.0262% and the “% AChE Inhibition” value (AChE; 180 min, listed as SCP + ORSM) was 48.89 ± 0.0378%. For the same compound, the “% AChE Inhibition” value (AChE; 240 min) was 37.05 ± 0.0184%, the “Retention test, Latency time, 1st” value ([2]; listed as COL + ORSM) was 127.8 ± 21.13 s and the “Retention test, No. of crossings, 1st” value ([2]; listed as COL + ORSM) was 1.83±0.54. The “Retention test, Time spent in darker chamber, 1st” value ([2]; listed as COL + ORSM) was 38.5 ± 16.47 s, the “Retention test, Latency time, 2nd” value ([2]; listed as COL + ORSM) was 90.55 ± 22.83 s and the “Retention test, No. of crossings, 2nd” value ([2]; listed as COL + ORSM) was 3.00±0.63. For the same compound, the “Retention test, Time spent in darker chamber, 2nd” value ([2]; listed as COL + ORSM) was 68 ± 23.51 s, the “Retention test, No. of crossings, 3rd” value [2] was 3.17±0.48 and the “Retention test, Latency time, 3rd” value ([2]; listed as COL + ORSM) was 48.83 ± 8.28 s. For the same compound, the “Retention test, Time spent in darker chamber, 3rd” value ([2]; listed as COL + ORSM) was 81.33 ± 10.56 s and the “Acquisition test, 2nd day” value ([2]; listed as COL + ORSM) was 8.91 ± 2.049.

For `CCN(C)C(=O)Oc1cccc([C@H](C)N(C)C)c1` [INRSM, rivastigmine], the Acquisition time ([1]; listed as SCP + INRSM) was 11.59 ± 2.37 s, the No. of crossings ([1]; listed as SCP + INRSM) was 2.17 ± 0.54 and the “Time spent in bright comp.” value ([1]; listed as SCP + INRSM) was 109.67 ± 11.65 s. The “Time spent in darker comp.” value ([1]; listed as SCP + INRSM) was 70.33 ± 11.65 s, the Latency time ([1]; listed as SCP + INRSM) was 60.11 ± 16.82 a s and the “peak AChE inhibition (Emax, maximum inhibition) in plasma” value (AChE) was 71.95%. For the same compound, the “time of peak AChE inhibition in plasma” value (AChE) was 10 min, the “% AChE Inhibition” value (AChE; 0 min, listed as SCP + INRSM) was 0.00 ± 0.0294% and the “% AChE Inhibition” value (AChE; 5 min, listed as SCP + INRSM) was 64.46 ± 0.1016%. The “% AChE Inhibition” value (AChE; 10 min, listed as SCP + INRSM) was 71.95 ± 0.0398%, the “% AChE Inhibition” value (AChE; 15 min, listed as SCP + INRSM) was 71.82 ± 0.0577 a,b,c % and the “% AChE Inhibition” value (AChE; 20 min, listed as SCP + INRSM) was 62.84 ± 0.0565%. For the same compound, the “% AChE Inhibition” value (AChE; 30 min, listed as SCP + INRSM) was 63.67 ± 0.0441%, the “% AChE Inhibition” value (AChE; 45 min, listed as SCP + INRSM) was 59.44 ± 0.0384% and the “% AChE Inhibition” value (AChE; 60 min, listed as SCP + INRSM) was 57.57 ± 0.0314%. For the same compound, the “% AChE Inhibition” value (AChE; 90 min, listed as SCP + INRSM) was 56.2 ± 0.317%, the “% AChE Inhibition” value (AChE; 120 min, listed as SCP + INRSM) was 51.35 ± 0.0329% and the “% AChE Inhibition” value (AChE; 180 min, listed as SCP + INRSM) was 49.26 ± 0.0264%. For the same compound, the “Retention test, Latency time, 1st” value ([2]; listed as COL + INRSM) was 122.3 ± 13.32 s, the “Retention test, No. of crossings, 1st” value ([2]; listed as COL + INRSM) was 2.67±0.56 and the “Retention test, Time spent in darker chamber, 1st” value ([2]; listed as COL + INRSM) was 49.5 ± 12.13 s. The “Retention test, Latency time, 2nd” value ([2]; listed as COL + INRSM) was 101.8 ± 10.46 s, the “Retention test, No. of crossings, 2nd” value ([2]; listed as COL + INRSM) was 3.50±0.56 and the “Retention test, Time spent in darker chamber, 2nd” value ([2]; listed as COL + INRSM) was 58.67 ± 10.25 s. For the same compound, the “Retention test, No. of crossings, 3rd” value [2] was 3.17±0.48, the “Retention test, Latency time, 3rd” value ([2]; listed as COL + INRSM) was 77.17 ± 11.18 s and the “Retention test, Time spent in darker chamber, 3rd” value ([2]; listed as COL + INRSM) was 67.17 ± 12.43 s. The “Acquisition test, 2nd day” value ([2]; listed as COL + INRSM) was 11.07 ± 2.195.

Source: paper PMC8298375 (Naunyn-Schmiedeberg's Archives of Pharmacology, 2021)
